From patent publication US12275731B2, “Azaindole inhibitors of wild-type and mutant forms of LRRK2” (DANA-FARBER CANCER INSTITUTE, INC., priority 2018, dated 2025) come the findings set out here.

Common to all, as to experiment: KinomeScan profiling
Assay type in all cases: binding

For one test, the target named is T1, ASK1 (Homo sapiens, UniProt Q99683).
T1 construct: purchased KinomeScan®
T1 sequence (Q99683 1-1374): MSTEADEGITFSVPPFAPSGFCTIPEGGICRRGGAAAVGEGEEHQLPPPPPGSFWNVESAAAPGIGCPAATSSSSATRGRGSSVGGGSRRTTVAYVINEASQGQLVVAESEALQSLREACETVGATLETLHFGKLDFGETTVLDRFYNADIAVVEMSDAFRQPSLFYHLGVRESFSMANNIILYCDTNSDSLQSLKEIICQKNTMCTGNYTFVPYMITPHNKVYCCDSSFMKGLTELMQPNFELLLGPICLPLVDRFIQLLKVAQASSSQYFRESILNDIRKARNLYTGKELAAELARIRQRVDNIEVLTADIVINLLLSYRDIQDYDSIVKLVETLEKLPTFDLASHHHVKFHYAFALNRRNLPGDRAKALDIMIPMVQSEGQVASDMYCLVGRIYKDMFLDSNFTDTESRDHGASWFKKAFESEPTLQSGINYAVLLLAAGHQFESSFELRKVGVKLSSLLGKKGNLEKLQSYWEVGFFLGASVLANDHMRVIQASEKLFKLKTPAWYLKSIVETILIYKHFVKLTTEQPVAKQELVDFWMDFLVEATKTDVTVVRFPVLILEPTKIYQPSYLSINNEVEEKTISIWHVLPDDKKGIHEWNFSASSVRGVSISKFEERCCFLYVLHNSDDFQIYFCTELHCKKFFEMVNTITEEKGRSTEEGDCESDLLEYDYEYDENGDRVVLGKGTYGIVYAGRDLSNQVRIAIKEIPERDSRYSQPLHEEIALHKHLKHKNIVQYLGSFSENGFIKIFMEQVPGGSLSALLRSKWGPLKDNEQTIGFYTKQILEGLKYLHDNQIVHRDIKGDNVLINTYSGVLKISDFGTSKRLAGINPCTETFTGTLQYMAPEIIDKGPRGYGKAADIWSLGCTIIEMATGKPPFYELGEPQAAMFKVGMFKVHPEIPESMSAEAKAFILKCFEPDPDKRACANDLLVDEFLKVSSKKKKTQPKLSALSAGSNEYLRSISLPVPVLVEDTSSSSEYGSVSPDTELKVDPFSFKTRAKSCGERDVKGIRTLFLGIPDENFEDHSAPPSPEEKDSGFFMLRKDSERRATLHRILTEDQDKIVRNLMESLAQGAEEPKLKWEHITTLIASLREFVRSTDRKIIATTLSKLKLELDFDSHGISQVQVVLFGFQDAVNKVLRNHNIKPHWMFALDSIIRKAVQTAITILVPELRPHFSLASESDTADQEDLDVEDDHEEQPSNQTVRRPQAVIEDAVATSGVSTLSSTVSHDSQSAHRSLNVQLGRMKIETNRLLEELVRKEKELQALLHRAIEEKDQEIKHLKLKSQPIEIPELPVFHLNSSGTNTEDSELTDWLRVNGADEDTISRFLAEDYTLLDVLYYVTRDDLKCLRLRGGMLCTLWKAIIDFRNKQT
The note with it: ASK1, 1 μM; read-out: % control. An outline of the steps:
(§1)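 Luminescence (RLU) was converted to percent of control, with DMSO set as 100% and a reference compound as 0%. Test compounds were run at 1 μM against 468 kinases. Kinases showing below 35% of control were scored as bound.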

Another test has as its target T2, AURKB (Homo sapiens, UniProt Q96GD4).
T2 construct: purchased KinomeScan®
The note with it: read-out: % control. An outline of the steps:
as §1

Another test deals with CDK9 (Homo sapiens, UniProt P50750). The following applies: CDK9, 1 μM; read-out: % control. An outline of the steps:
as §1

The next test has as its target HIPK1 (Homo sapiens, UniProt Q86Z02). The following applies: HIPK1, 1 μM; read-out: % control. An outline of the steps: as §1
The target in a further test is T3, IKK-beta (Homo sapiens, UniProt O14920).
T3 construct: purchased KinomeScan®
T3 sequence (O14920 1-756): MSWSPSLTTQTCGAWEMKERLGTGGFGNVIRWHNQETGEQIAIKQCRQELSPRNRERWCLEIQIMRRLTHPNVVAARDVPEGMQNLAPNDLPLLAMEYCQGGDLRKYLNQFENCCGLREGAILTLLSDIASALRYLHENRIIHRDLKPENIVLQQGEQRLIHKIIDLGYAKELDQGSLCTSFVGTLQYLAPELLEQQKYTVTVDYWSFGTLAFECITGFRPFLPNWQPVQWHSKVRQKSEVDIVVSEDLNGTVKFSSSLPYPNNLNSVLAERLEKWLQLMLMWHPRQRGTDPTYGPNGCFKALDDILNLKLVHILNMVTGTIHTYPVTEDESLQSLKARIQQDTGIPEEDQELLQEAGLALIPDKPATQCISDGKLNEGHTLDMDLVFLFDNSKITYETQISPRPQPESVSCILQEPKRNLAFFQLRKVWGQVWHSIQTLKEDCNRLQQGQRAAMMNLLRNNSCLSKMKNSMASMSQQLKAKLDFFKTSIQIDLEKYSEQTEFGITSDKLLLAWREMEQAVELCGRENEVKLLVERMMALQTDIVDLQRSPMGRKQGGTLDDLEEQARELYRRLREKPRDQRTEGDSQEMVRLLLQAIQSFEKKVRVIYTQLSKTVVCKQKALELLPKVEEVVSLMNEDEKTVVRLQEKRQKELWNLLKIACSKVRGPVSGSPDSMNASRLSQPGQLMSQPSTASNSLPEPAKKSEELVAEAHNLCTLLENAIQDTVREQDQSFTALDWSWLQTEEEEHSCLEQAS
The following applies: read-out: % control. An outline of the steps:
as §1

The target in another test is T4, KIT(L576P) (Homo sapiens, UniProt P10721, L576P).
T4 construct: purchased KinomeScan®
The note with it: read-out: % control. An outline of the steps: as §1

The next test addresses NEK7 (Homo sapiens, UniProt Q8TDX7). The note with it: NEK7, 1 μM; read-out: % control. The essentials:
as §1

In a further test the target is OSR1 (Homo sapiens, UniProt O95747). The following applies: OSR1, 1 μM; read-out: % control. An outline of the steps:
as §1

The target of a further test is PAK2 (Homo sapiens, UniProt Q13177). The note with it: PAK2, 1 μM; read-out: % control. The essentials: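 1 μM cpd in DMSO; 468-kinase panel; readout RLU. % ctrl = (cpd − pos ctrl)/(neg ctrl − pos ctrl) ×100. Pos ctrl = 0%, DMSO = 100%. Hit cut-off <35%.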
Chain of PAK2 (Q13177 whole entry): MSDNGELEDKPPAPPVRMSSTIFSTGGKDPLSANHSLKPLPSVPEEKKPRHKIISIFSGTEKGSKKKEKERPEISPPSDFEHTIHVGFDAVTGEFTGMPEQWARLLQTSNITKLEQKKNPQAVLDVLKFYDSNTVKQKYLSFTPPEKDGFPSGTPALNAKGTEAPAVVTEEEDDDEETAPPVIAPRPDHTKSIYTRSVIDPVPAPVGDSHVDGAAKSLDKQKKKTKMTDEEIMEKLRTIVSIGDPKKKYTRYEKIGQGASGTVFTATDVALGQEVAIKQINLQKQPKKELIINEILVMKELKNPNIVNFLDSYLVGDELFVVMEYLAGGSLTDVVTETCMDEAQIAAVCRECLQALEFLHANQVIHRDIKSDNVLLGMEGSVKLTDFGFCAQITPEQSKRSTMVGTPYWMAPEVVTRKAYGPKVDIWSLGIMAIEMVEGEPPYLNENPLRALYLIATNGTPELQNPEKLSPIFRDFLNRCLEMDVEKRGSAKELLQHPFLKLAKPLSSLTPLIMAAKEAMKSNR

Chain of OSR1 (O95747 whole entry): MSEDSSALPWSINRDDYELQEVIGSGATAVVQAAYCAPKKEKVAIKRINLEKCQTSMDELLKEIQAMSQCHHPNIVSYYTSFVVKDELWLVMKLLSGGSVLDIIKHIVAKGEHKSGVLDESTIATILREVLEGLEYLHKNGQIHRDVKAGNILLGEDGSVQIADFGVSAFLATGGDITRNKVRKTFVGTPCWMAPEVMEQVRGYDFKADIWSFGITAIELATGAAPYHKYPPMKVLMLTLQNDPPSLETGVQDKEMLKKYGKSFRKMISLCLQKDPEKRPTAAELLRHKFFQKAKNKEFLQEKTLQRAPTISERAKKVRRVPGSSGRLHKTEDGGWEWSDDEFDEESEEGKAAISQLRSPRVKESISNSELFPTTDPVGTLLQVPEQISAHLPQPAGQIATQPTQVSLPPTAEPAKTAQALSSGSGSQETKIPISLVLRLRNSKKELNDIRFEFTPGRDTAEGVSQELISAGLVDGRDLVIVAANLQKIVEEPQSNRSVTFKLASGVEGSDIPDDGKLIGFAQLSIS
T2 sequence (Q96GD4 whole entry): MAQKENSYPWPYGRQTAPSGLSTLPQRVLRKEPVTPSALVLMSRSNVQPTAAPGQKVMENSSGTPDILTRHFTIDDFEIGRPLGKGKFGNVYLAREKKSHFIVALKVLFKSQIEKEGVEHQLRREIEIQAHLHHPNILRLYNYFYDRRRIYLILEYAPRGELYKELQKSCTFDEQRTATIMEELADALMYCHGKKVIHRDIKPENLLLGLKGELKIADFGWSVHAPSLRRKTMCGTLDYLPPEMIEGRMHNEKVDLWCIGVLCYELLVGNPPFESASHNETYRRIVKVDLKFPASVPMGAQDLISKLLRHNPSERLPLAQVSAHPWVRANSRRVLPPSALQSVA
Chain of NEK7 (Q8TDX7 whole entry): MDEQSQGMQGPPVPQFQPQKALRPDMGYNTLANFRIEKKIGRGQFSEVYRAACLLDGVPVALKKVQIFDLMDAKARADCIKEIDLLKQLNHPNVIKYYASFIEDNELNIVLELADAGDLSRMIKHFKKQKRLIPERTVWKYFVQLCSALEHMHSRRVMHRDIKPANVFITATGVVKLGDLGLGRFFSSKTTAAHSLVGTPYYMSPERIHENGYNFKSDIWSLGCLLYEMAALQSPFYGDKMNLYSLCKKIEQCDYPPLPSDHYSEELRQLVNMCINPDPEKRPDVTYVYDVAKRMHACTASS
Chain of HIPK1 (Q86Z02 whole entry): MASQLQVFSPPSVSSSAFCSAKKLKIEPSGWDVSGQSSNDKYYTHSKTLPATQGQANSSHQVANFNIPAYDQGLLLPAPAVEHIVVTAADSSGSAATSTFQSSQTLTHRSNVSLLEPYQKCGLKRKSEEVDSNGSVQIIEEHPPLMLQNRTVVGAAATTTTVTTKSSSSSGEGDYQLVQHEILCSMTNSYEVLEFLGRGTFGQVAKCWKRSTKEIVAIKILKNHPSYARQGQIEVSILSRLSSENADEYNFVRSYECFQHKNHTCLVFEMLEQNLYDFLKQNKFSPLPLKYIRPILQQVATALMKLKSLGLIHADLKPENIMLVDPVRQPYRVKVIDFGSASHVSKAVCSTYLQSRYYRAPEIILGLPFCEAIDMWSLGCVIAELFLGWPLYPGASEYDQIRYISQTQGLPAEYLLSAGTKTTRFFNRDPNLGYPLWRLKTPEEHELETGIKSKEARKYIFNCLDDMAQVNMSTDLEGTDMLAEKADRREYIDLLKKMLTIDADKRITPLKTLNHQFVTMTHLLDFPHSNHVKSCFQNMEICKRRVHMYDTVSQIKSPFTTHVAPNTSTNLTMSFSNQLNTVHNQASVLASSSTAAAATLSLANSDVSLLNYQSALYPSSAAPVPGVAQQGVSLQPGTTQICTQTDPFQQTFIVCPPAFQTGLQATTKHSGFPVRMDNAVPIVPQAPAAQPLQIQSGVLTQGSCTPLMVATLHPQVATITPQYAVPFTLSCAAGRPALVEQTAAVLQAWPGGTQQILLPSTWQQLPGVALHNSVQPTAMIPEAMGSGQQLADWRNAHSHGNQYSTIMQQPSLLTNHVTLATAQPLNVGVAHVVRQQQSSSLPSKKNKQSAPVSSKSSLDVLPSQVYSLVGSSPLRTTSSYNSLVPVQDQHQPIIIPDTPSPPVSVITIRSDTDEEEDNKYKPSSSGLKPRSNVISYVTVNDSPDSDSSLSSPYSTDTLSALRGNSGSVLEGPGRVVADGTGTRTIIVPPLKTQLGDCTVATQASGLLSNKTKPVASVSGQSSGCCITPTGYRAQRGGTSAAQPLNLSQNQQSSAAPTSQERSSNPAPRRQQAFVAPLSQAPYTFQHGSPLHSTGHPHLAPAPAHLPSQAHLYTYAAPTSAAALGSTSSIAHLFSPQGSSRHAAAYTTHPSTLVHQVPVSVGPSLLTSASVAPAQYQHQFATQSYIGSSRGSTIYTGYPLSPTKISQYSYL
T4 sequence (P10721 26-976 L576P): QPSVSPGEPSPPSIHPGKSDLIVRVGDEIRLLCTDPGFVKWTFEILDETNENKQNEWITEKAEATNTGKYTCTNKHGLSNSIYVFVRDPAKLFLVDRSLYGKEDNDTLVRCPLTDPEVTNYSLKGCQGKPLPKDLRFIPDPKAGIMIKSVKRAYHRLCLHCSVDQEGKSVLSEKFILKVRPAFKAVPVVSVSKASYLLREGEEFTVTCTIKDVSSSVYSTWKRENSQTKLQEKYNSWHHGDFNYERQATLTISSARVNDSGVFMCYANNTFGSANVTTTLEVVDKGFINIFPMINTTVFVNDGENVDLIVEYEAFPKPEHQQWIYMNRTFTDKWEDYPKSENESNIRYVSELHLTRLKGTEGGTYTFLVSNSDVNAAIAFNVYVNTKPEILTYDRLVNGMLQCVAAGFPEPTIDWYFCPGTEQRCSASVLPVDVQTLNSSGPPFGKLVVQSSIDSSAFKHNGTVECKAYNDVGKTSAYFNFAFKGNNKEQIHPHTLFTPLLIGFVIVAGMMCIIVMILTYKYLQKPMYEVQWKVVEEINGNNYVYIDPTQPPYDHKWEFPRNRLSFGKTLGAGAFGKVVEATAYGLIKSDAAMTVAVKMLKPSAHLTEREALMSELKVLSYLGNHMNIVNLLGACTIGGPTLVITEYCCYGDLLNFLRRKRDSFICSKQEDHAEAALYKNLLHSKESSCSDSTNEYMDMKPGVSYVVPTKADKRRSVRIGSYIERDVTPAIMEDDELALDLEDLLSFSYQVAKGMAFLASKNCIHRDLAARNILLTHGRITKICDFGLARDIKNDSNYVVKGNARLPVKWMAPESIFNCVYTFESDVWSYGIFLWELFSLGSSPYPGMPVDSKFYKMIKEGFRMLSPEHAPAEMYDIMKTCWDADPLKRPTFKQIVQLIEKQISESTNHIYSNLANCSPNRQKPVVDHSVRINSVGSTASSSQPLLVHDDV
Chain of CDK9 (P50750 whole entry): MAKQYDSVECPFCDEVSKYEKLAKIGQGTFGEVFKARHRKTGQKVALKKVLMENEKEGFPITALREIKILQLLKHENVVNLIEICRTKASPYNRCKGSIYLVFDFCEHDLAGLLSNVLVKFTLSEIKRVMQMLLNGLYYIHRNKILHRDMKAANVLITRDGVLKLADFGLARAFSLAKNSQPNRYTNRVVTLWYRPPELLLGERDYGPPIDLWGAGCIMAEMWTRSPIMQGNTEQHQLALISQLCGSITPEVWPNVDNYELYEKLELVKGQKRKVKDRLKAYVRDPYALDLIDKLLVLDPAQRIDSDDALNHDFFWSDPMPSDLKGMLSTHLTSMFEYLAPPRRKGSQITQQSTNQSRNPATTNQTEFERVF

For `CNc1c(-c2ccc(C(=O)N3CCC(N4CCOCC4)CC3)cc2)cnc2[nH]cc(Cl)c12` [Compound 96, (4-(3-chloro-4-(methylamino)-1H-pyrrolo[2,3-b]pyridin-5-yl)phenyl)(4-morpholinopiperidin-1-yl)methanone], the remaining binding at 1 µM at ASK1 was 5.9%; at AURKB, 53%; at CDK9, 87%; on HIPK1 it was 68%; at IKK-beta it was 32%; at KIT(L576P), 19%. Besides, the remaining binding at 1 µM on NEK7 came out at 100%; on OSR1 it was 66%; on PAK2, 96%.

For `O=C(c1ccc(-c2cnc3[nH]cc(Cl)c3c2NC2CCCC2)cc1)N1CCC(N2CCOCC2)CC1` [Compound 101, (4-(3-chloro-4-(cyclopentylamino)-1H-pyrrolo[2,3-b]pyridin-5-yl)phenyl)(4-morpholinopiperidin-1-yl)methanone], the remaining binding at 1 µM is 94% at ASK1; 100% at AURKB; 96% on CDK9; 92% on HIPK1; 93% at IKK-beta; 46% on KIT(L576P). Moreover, the remaining binding at 1 µM on NEK7 worked out at 95%; on OSR1 it was 100%; at PAK2, 80%.

`CNc1c(-c2cnn([C@H]3CCN(C(C)=O)C[C@@H]3F)c2)cnc2[nH]cc(Cl)c12` [Compound 77, 1-((3S,4S)-4-(4-(3-chloro-4-(methylamino)-1H-pyrrolo[2,3-b]pyridin-5-yl)-1H-pyrazol-1-yl)-3-fluoropiperidin-1-yl)ethan-1-one]: the remaining binding at 1 µM worked out at 4.3% at ASK1; 24% on AURKB; 83% on CDK9; 70% at HIPK1; 28% at IKK-beta; 10% on KIT(L576P). Besides, the results for the remaining binding at 1 µM at NEK7, at OSR1 and on PAK2 were 100%, 75% and 100%, respectively.
